What was measured:
[1] = Topical treatment of psoriasis; assay type: in vivo, human; conditions: preliminary information
Excerpt: Several patients suffering from proliferative skin disorders such as psoriasis have been included in a recent ongoing study of the anti-proliferative effects of topical picolinic acid. […] The patients may be treated with a topical application of approximately 5% to 20% picolinic acid, or a derivative thereof, in an absorption base. Alternatively, the patient may be treated with a solution containing approximately 5% to 20% picolinic acid, or derivative, in deionized water. The topical preparation may be applied twice a day or in an alternative pharmacologically acceptable regimen.

plantar wart = experiment: Topical treatment of virus-induced plantar ulcer; assay type: in vivo, human
Experimental: A patient with recurrent plantar wart of about 2 cm in diameter was treated with topical picolinic acid. The patient, a pathologist who had difficulty walking because of the pain caused by the ulcer, had experimented with numerous medications for more than three months without any significant results prior to treatment with the picolinic acid. It is relevant to note that many plantar ulcers are transformed into malignant tumors.
The patient was treated with a solution of 10% picolinic acid in deionized water for one week. […] They then were treated with 10% picolinic acid in Aquaphor. The ointment was placed on the ulcer and on a patch. The patch was replaced every 24 hours.

[2] = Stability experiments as preservative in foods and on fresh fruits; assay type: physicochemical; conditions: in foods and on the surface of fresh fruits
Excerpt: (§1) The chelating agents of the present invention can be used as preservatives in perishable items such as foods and pharmaceuticals and to prevent fungal growth on the surface of fresh fruits. Presently chemicals such as citrashine orthophenilphenol thiabendazole are used. […] Microbial and fungal growth is inhibited while the food components are unaffected. The preservative of the present invention has less likelihood of toxicity or untoward reactions if ingested that the present, complex chemical antifungals. The preferred concentration of picolinic acid or acceptable derivative for this use is approximately below 0.025% to be classified as a preservative. Of course, greater percentages, e.g. up to 99.9% also would be effective.

papilloma virus = experiment: Topical treatment of ulcerative papilloma virus lesion in a horse; assay type: in vivo; conditions: for diameter of the lesion: initially 3 inch
Experimental: The lesion was progressive, with total loss of hair over the area. The diagnosis was viral disease, i.e. papilloma virus, complicated by fungal infection. The horse was treated with conventional local antibiotic and chemical therapies for about four months.
An aqueous solution of 10% picolinic acid in deionized water was applied every other day with a cotton swab over and around the lesion. The treatment continued for 45 days. The course of the regression of the viral lesion was as follows: […]

normal cells = conditions: longer exposure; most normal cells; cited from earlier work
transformed cells = conditions: cited from earlier work
[3] = in a 70 Kg subject; cited from earlier work
[4] = Topical treatment of sunburn; assay type: in vivo; conditions: 1%, 5% or 10% picolinic acid in absorption base; over 25 cases
Excerpt: Furthermore, it is believed that the response of cells to stress, such as exposure to UV radiation, chemicals, bacteria, parasites or fungi is associated with the induction of heat shock proteins.

lymphoma = experiment: Oral treatment of lymphoma and impaired immunity; assay type: in vivo, human; conditions: oral 2000 to 4000 mg per day
Experimental: The patient was a person with a history of lymphoma and impaired immunity. The patient had received standard therapy for lymphoma including the CHOP regimen. […] The patient contracted pneumonia three or four times per year and suffered from chronic otitis, chronic sinusitis and chronic Herpes Zoster infections.
The patient was treated with oral picolinic acid starting at 2000 mg per day and increased to 4000 mg per day divided equally in four doses. […] Their immunoglobulin levels rose to 3.3. Their chronic ear and sinus infections and pneumonia resolved concurrently. The Herpes Zoster disappeared.

osteosarcoma = experiment: Oral treatment of osteosarcoma in canine; assay type: in vivo, dog; conditions: 500 mg capsules twice daily, six days after initiating treatment
Experimental: The subject animal was a Bichon Frise dog that was diagnosed by a veterinarian with osteosarcoma. The osteosarcoma had invaded the dog's mandible and was encroaching on the lower portion of the orbit. The veterinarian began treatment with picolinic acid. The dog was administered 500 mg of picolinic acid, in capsules, twice daily. Six days after initiating treatment the veterinarian documented that the osteosarcoma had reduced approximately 40% in size. One week later the veterinarian observed that the tumor looked “necrotic”. The veterinarian incised the skin above the tumor and removed fluid from the center of the tumor.

[5] = Nasal spray treatment of upper respiratory infection; assay type: in vivo, human; conditions: nasal spray 3 mM in physiologic saline, evening and bedtime, upon arising
Experimental: A college student presented with nasal congestion, slight fever, cough and sore throat. The subject began treatment with nasal spray containing 3 mM picolinic acid in physiologic saline vehicle. The subject used one or two sprays in each nostril after evening meal and before bedtime.

WI-38 cells = experiment: Growth of WI-38 cells (total cell protein, cell number); assay type: cell-based; conditions: 3 mM picolinic acid
Experimental: Cells were plated at 1.5×10^5 cells/60-mm dish; 48 hours later, the medium was removed, and new media with or without 3 mM picolinic acid was added. Total cell protein was determined at the indicated times; each point is the average of triplicate measurements from 2 cultures.
In initial experiments to examine the effects of fusaric acid on cell growth and viability, WI-38 and LoVo cells were incubated for 24 to 72 hours in medium with or without various doses of fusaric acid (0.1-1 mM). The growth of both WI-38 and LoVo cells was inhibited by 500 μM fusaric acid in a time and dose dependent manner, as shown below in Table 2.

human papilloma viruses = experiment: Topical treatment of common warts; assay type: in vivo; conditions: 10% to 20% solution or 10% ointment in Aquaphor
Experimental: Five patients ranging in age from 11 years to 52 years and each having at least one common wart induced by human papilloma viruses was treated with a topical preparation of picolinic acid The topical preparation was either solution of 10% to 20% picolinic acid in deionized water or a topical ointment wherein 10% picolinic acid is incorporated into Aquaphor, i.e. 1 g of picolinic acid in 10 g of Aquaphor.

[6] = cited from earlier work
[7] = test system: Microbial and fungal growth; experiment: Preservative effect on microbial and fungal growth in foods; conditions: used as preservative
Excerpt: as §1

O=C(O)c1ccccn1 [picolinic acid, 2-Pyridine carboxylic acid]
regression of psoriasis [1]: significant effect in inducing regression of the psoriasis | plantar ulcer appearance (plantar wart; 10% solution in deionized water for one week): Central necrosis was noted | plantar ulcer outcome (plantar wart; then 10% in Aquaphor on ulcer and patch, additional three weeks): the plantar ulcer resolved | stability as a preservative [2]: highly stable | lesion appearance (papilloma virus; 10% aqueous solution every other day, after 10 days): central necrosis | diameter of the lesion (papilloma virus; 10% aqueous solution, after 20 days): approximately 2 inches | diameter of the lesion (papilloma virus; 10% aqueous solution, after 30 days): about 1 inch | lesion outcome (papilloma virus; 10% aqueous solution, at 45 days): resolved with some scar tissue | recurrence (papilloma virus; three additional months after treatment): without evidence of recurring disease | toxic effects in normal cells (normal cells): no toxic effects | cytotoxicity in transformed cells (transformed cells): cytotoxicity and cell death | LD-50 [3]: 140 grams | treatment of sunburn [4]: successfully used | chronic ear and sinus infections and pneumonia (lymphoma): resolved | lymphoma response (lymphoma; approximately two weeks): reduction in size of lymph nodes | immunoglobulin levels (lymphoma; before treatment 0.6 to 0.7): 3.3 | reduction in size of osteosarcoma (osteosarcoma): approximately 40% | upper respiratory symptoms [5]: no fever or sore throat symptoms | toxic effects on WI-38 cells (WI-38 cells; up to 72 hours of treatment): no toxic effects | growth of WI-38 cells (WI-38 cells; within 24 hours): inhibited | reversibility of growth inhibition (WI-38 cells; within 24 hours of removal of the agent): reversible | wart outcome (human papilloma viruses; after approximately 4 to 6 weeks): the warts were gone | wart appearance (human papilloma viruses; after seven days, five patients): central necrosis of the wart occurred | solubility in water [6]: readily soluble in water | microbial and fungal growth [7]: inhibited

Reference: patent publication US6407125B1, “Pharmacological agent and method of treatment” (Novactyl, Inc., priority 1995, dated 2002)
